Assay results published in patent publication US9006440B2, “Furopyridine derivatives” (Merck Patent GmbH, priority 2010, dated 2015).

These compounds were tested against T1, Syk (Homo sapiens, UniProt P43405) (assay: Syk enzyme assay (SYK flash plate assay / Caliper mobility shift)).
T1 construct: purchased BPS Bioscience, CA, USA
Format: biochemical
Experimental: The kinase assay is performed either as 384-well Flashplate assay (for e.g. Topcount measurement) or as 384-well Image-Flashplate assay (for LEADseeker measurement).
2.5 nM SYK, 400 nM Biotin-Aha-Aha-KEDPDYEWPSAKK
and 10 μM ATP (spiked with 0.3 μCi 33P-ATP/well) are incubated in a total volume of 50 μl (60 mM Hepes, 10 mM MgCl2, 1.2 mM Dithiothreitol, 0.02% Brij35, 0.1% BSA, pH 7.5) with or without test compound for 1 hours at 30° C. The reaction is stopped with 25 μl 200 mM EDTA. After 30 Min at 30° C. the liquid is removed and each well washed thrice with 100 μl 0.9% sodium chloride solution. Non-specific reaction is determined in presence of 0.1 μM Staurosporine. Radioactivity is measured with Topcount (when using Flashplates) or with LEADseeker (when using Image-Flashplates) respectively. Results (e.g. IC50-values) are calculated with program tools provided by the IT-department (e.g. Symyx Assay Explorer, Genedata Screener). Enzymatic Assays Using the Caliper LifeSciences Technology
The assays described here are performed on the Caliper Life Sciences LC3000 system This technology provides data on enzyme activity via measurement of the relative amounts of phosphorylated or unphosphorylated fluorescently labelled substrate peptide at the end of an enzymatic reaction. These different states of peptide are resolved by applying a potential difference across the sample. The presence of the charged phosphate group on the product (as opposed to the substrate) causes a different peptide mobility between the two peptides. This is visualized by excitation of the fluorescent label on the substrate and product peptides and represented as peaks within the analysis software.
In order to measure inhibitor activity of kinase inhibitors on this technology, a TTP Mosquito liquid handling instrument is used to place 0.25 ul of the appropriate concentration of inhibitor in 100% DMSO (for a dose response curve calculation) into each well of a 384-well plate. To this reaction components are added to a final volume of 25 ul. The table below indicates the sequences and concentrations for the assays described in this report. Standard components are 1 mM DTT (Sigma, D0632), 1 mM MgCl2 (Sigma, M1028), 100 mM HEPES pH 7.5 (Calbiochem, 391338), 0.015% Brij-35 (Sigma, B4184).
The reaction is incubated for 90 min at 25 C, and then stopped by the addition of 70 ul of Stop buffer (100 mM HEPES pH 7.5, 0.015% Brij-35, 10 mM EDTA (Sigma, E7889)).
The plate is read on a Caliper LC 3000 in an Off-Chip mobility shift assay format, on a 12-sipper chip. Unphosphorylated substrate and phosphorylated product peptide resolve as separate peaks allowing direct measurement of percentage of conversion of substrate to product. The percent conversion can be plotted against concentration of inhibitor to produce a sigmoidal dose response curve, from which an IC50 can be calculated using GeneData Condoseo or a similar product.
For `Oc1cccc(-c2cc3nccc(-c4ccccc4)c3o2)c1` [Compound C1], the IC50 was 0.3 to 3 µM.
Compound `COc1cc(-c2cc3nccc(-c4cccc(C(=O)NCCO)c4)c3o2)cc(OC)c1OC` [Compound C5] has an IC50 of under 0.3 µM.
Compound `Cc1cc(C(=O)NC(C)(C)CO)cc(-c2cc3nccc(-c4ccccc4)c3o2)c1` [Compound A43, N-(2-Hydroxy-1,1-dimethyl-ethyl)-3-methyl-5-(7-phenyl-furo[3,2-b]pyridin-2-yl)-benzamide] has an IC50 of under 0.3 µM.
For `COc1cc(-c2cc3nccc(-c4cnn(C)c4)c3o2)ccn1` [Compound C16], the IC50 was 0.3 to 3 µM.
Compound `COc1cc(-c2cc3nccc(-c4cc(C)c(OC)c(C)c4)c3o2)cc(OC)c1OC` [Compound B73, 7-(4-Methoxy-3,5-dimethylphenyl)-2-(3,4,5-trimethoxyphenyl)furo[3,2-b]pyridine] has an IC50 of 0.3 to 3 µM.
`Cn1cc(-c2ccnc3cc(-c4ccc(OCCN5CCCCC5)cc4)oc23)cn1` [Compound C36] showed an IC50 of 0.3 to 3 µM.
Compound `COc1cc(-c2cc3nccc(-c4ccc(C)cc4C)c3o2)cc(OC)c1OC` [Compound A32, 7-(2,4-Dimethyl-phenyl)-2-(3,4,5-trimethoxy-phenyl)-furo[3,2-b]pyridine] has an IC50 of 0.3 to 3 µM.
Work on `Cn1cc(-c2ccnc3cc(-c4ccc([S+](C)[O-])cc4)oc23)cn1` (stereo not shown) [Compound C54] yielded an IC50 of 0.3 to 3 µM.
Compound `Cn1cc(-c2ccnc3cc(-c4cccc(OCc5ccccc5)c4)oc23)cn1` [Compound C20] has an IC50 of 3 to 50 µM.
Work on `Fc1ccc(-c2cc3nccc(-c4ccc(F)cc4)c3o2)cc1` [Compound B6, 2,7-Bis-(4-fluoro-phenyl)-furo[3,2-b]pyridine] yielded an IC50 of 3 to 50 µM.
Compound `CC(C)Cn1cc(-c2cc3nccc(-c4cnn(C)c4)c3o2)cn1` [Compound C6] has an IC50 of 0.3 to 3 µM.
Compound `COc1cc(-c2cc3nccc(NCc4cccc(S(C)(=O)=O)c4)c3o2)cc(OC)c1OC` [Compound B9] has an IC50 of 3 to 50 µM.
`COc1cc(-c2cc3nccc(-c4ccc(C)c5ncccc45)c3o2)cc(OC)c1OC` [Compound A26, 8-Methyl-5-[2-(3,4,5-trimethoxy-phenyl)-furo[3,2-b]pyridin-7-yl]-quinoline] was tested, and the IC50 was 0.3 to 3 µM.
`COc1cc(-c2cc3nccc(-c4ccccc4C(C)C)c3o2)cc(OC)c1OC` [Compound C14] showed an IC50 of 0.3 to 3 µM.
`COc1cc(-c2cc3nccc(-c4cccc(C(=O)NCC5CCCN5C(=O)OC(C)(C)C)c4)c3o2)cc(OC)c1OC` (stereo not shown) [Compound C7] gave an IC50 of 0.3 to 3 µM.
With `COc1cc(-c2cc3nccc(-c4ccc(CNC(C)=O)cc4)c3o2)cc(OC)c1OC` [Compound A54, N-{4-[2-(3,4,5-Trimethoxy-phenyl)-furo[3,2-b]pyridin-7-yl]-benzyl}-acetamide] the IC50 was 0.3 to 3 µM.
For `COc1cccc(-c2cc3nccc(-c4ccccc4)c3o2)c1` [Compound C15], the IC50 was 0.3 to 3 µM.
For `c1ccc(-c2ccnc3cc(-c4ccc(N5CCOCC5)cc4)oc23)cc1` [Compound C50], the IC50 was 0.3 to 3 µM.
With `CC(=O)c1ccc(-c2cc3nccc(-c4cnn(C)c4)c3o2)cc1` [Compound C95] the IC50 was 0.3 to 3 µM.
With `COc1cc(-c2cc3nccc(-c4cnc(N)cc4C)c3o2)cc(OC)c1OC` [Compound C75] the IC50 was 0.3 to 3 µM.
Work on `COc1cc(-c2cc3nccc(-c4ccc(C#N)cc4)c3o2)cc(OC)c1OC` [Compound A12, 4-[2-(3,4,5-Trimethoxy-phenyl)-furo[3,2-b]pyridin-7-yl]-benzonitrile] yielded an IC50 of 3 to 50 µM.
For `COc1cc(-c2cc3nccc(-c4ccnc5ccccc45)c3o2)cc(OC)c1OC` [Compound A24, 4-[2-(3,4,5-Trimethoxy-phenyl)-furo[3,2-b]pyridin-7-yl]-quinoline], the IC50 was 0.3 to 3 µM.
With `COc1cc(-c2cc3nccc(-c4ccccc4C)c3o2)cc(OC)c1OC` [Compound A21, 7-o-Tolyl-2-(3,4,5-trimethoxy-phenyl)-furo[3,2-b]pyridine] the IC50 was under 0.3 µM.
Work on `COc1cc(-c2cc3nccc(-c4cccc5ncccc45)c3o2)cc(OC)c1OC` [Compound A18, 5-[2-(3,4,5-Trimethoxy-phenyl)-furo[3,2-b]pyridin-7-yl]-quinoline] yielded an IC50 of 0.3 to 3 µM.
`COc1cc(-c2cc3nccc(-c4cnc(F)cc4C)c3o2)cc(OC)c1OC` [Compound C23] showed an IC50 of under 0.3 µM.
`COc1c(C)cc(-c2cc3nccc(-c4cc(C)c(OC)c(C)c4)c3o2)cc1C` [Compound B32, 2,7-Bis-(4-methoxy-3,5-dimethyl-phenyl)-furo[3,2-b]pyridine] showed an IC50 of 3 to 50 µM.
`Cn1ncc2cc(-c3cc4nccc(-c5cccc(C(=O)N[C@@H]6CCCC[C@@H]6N)c5)c4o3)ccc21` [Compound C175] showed an IC50 of under 0.3 µM.
With `C=C(C)c1ccc(-c2cc3nccc(Nc4ccc5[nH]ccc5c4C)c3o2)cc1` [Compound B62, [2-(4-Isopropenyl-phenyl)-furo[3,2-b]pyridin-7-yl]-(4-methyl-1H-indol-5-yl)-amine] the IC50 was 3 to 50 µM.
`CN(c1ncccc1CNc1ccnc2cc(-c3ccccc3)oc12)S(C)(=O)=O` [Compound B20, N-Methyl-N-{3-[(2-phenyl-furo[3,2-b]pyridin-7-ylamino)-methyl]-pyridin-2-yl}-methanesulfonamide] was tested, and the IC50 was 3 to 50 µM.
In the case of `COc1ccc(-c2cc3nccc(-c4ccc(OC)c(OC)c4)c3o2)cc1OC` [Compound B39, 2,7-Bis-(3,4-dimethoxy-phenyl)-furo[3,2-b]pyridine], the IC50 is reported as 0.3 to 3 µM.
`CNC(=O)c1cccc(-c2ccnc3cc(-c4cc(OC)c(OC)c(OC)c4)oc23)c1` [Compound A7, N-Methyl-3-[2-(3,4,5-trimethoxy-phenyl)-furo[3,2-b]pyridin-7-yl]-benzamide] was tested, and the IC50 was under 0.3 µM.
Compound `Cc1noc(C)c1-c1cc2nccc(-c3cnn(C)c3)c2o1` [Compound C22] has an IC50 of 0.3 to 3 µM.
In the case of `COc1cc(-c2cc3nccc(-c4ccc(C(=O)NC5CCCC5)cc4)c3o2)cc(OC)c1OC` [Compound B75, N-Cyclopentyl-4-(2-(3,4,5-trimethoxyphenyl)furo[3,2-b]pyridin-7-yl)benzamide], the IC50 is reported as 3 to 50 µM.
`O=C(Nc1ccc(Oc2ccnc3cc(-c4ccccc4)oc23)cc1)c1cccn(-c2ccc(F)cc2)c1=O` [Compound B13, 1-(4-Fluoro-phenyl)-2-oxo-1,2-dihydro-pyridine-3-carboxylic acid [4-(2-phenyl-furo[3,2-b]pyridin-7-yloxy)-phenyl]-amide] gave an IC50 of 0.3 to 3 µM.
`COc1cccc(-c2cc3nccc(-c4cccc(OC)c4OC)c3o2)c1OC` [Compound B42, 2,7-Bis-(2,3-dimethoxy-phenyl)-furo[3,2-b]pyridine] was tested, and the IC50 was 3 to 50 µM.
`CC(C)(C#N)c1ccc(-c2cc3nccc(-c4ccc(C(C)(C)C#N)cc4)c3o2)cc1` [Compound B55, 2-(4-{2-[4-(Cyano-dimethyl-methyl)-phenyl]-furo[3,2-b]pyridin-7-yl}-phenyl)-2-methyl-propionitrile] was tested, and the IC50 was 0.3 to 3 µM.
With `CCOc1ccn(-c2ccc(F)cc2)c(=O)c1C(=O)Nc1ccc(Oc2ccnc3cc(-c4ccccc4)oc23)cc1` [Compound B14, 4-Ethoxy-1-(4-fluoro-phenyl)-2-oxo-1,2-dihydro-pyridine-3-carboxylic acid [4-(2-phenyl-furo[3,2-b]pyridin-7-yloxy)-phenyl]-amide] the IC50 was 0.3 to 3 µM.
For `COc1cc(-c2cc3nccc(-c4cccc5ccccc45)c3o2)cc(OC)c1OC` [Compound A22, 7-Naphthalene-1-yl-2-(3,4,5-trimethoxy-phenyl)-furo[3,2-b]pyridine], the IC50 was 0.3 to 3 µM.
With `COc1cc(-c2cc3nccc(-c4ccccc4O)c3o2)cc(OC)c1OC` [Compound C85] the IC50 was under 0.3 µM.
`COc1cc(-c2cc3nccc(-c4cnn(C)c4)c3o2)cc(OC)c1OC` [Compound A34, 7-(1-Methyl-1H-pyrazol-4-yl)-2-(3,4,5-trimethoxy-phenyl)-furo[3,2-b]pyridine] showed an IC50 of under 0.3 µM.
